Measurements: ChEMBL document CHEMBL5131572, “Identification of a Potent, Selective, and Brain-Penetrant Rho Kinase Inhibitor and its Activity in a Mouse Model of Huntington's Disease” (J Med Chem, 2022)
In brackets after ≈: the same amount, converted by molar mass.

Tests used:
[1] = Inhibition of ROCK in rat A7R5 cells assessed as cofilin serine 3 phosphorylation incubated for 1 hr by ICW assay; conditions: A7R5, 1 h
[2] = target: T1, cGMP-dependent protein kinase 1 (Homo sapiens, UniProt Q13976); assay: Inhibition of full length recombinant N-terminal GST-tagged human PKG expressed in baculovirus infected Sf9 insect cells using RSK as substrate preincubated for 15 mins followed by substrate addition and measured after 30 mins in presence of ATP by ADP Glo kinase assay
T1 sequence (Q13976 whole entry): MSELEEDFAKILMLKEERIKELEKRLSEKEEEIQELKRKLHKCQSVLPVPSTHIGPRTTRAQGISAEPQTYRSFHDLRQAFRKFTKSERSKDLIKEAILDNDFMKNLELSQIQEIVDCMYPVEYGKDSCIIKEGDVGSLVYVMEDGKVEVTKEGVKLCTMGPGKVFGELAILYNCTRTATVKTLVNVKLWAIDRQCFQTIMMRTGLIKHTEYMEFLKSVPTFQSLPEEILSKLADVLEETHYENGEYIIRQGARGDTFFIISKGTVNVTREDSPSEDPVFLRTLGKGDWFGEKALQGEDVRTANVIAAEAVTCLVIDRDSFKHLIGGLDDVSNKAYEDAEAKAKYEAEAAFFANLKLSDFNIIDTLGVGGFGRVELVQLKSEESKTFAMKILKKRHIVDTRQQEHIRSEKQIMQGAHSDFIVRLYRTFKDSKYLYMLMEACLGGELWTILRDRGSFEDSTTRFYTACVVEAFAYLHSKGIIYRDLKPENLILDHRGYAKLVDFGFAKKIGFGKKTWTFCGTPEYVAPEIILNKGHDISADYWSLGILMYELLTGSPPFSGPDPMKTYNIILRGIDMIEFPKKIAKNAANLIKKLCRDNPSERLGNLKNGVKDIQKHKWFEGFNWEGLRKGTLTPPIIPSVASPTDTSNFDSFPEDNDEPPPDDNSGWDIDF

[3] = target: Rho-associated protein kinase 2 (Homo sapiens, UniProt O75116); assay: Inhibition of recombinant N-terminal GST-tagged human ROCK2 (5 to 554 residues) expressed in baculovirus infected Sf9 cells using S6K as substrate incubated for 30 mins in presence of ATP by ADP Glo kinase assay
Chain of Rho-associated protein kinase 2 (O75116 whole entry, the tested form may be a part): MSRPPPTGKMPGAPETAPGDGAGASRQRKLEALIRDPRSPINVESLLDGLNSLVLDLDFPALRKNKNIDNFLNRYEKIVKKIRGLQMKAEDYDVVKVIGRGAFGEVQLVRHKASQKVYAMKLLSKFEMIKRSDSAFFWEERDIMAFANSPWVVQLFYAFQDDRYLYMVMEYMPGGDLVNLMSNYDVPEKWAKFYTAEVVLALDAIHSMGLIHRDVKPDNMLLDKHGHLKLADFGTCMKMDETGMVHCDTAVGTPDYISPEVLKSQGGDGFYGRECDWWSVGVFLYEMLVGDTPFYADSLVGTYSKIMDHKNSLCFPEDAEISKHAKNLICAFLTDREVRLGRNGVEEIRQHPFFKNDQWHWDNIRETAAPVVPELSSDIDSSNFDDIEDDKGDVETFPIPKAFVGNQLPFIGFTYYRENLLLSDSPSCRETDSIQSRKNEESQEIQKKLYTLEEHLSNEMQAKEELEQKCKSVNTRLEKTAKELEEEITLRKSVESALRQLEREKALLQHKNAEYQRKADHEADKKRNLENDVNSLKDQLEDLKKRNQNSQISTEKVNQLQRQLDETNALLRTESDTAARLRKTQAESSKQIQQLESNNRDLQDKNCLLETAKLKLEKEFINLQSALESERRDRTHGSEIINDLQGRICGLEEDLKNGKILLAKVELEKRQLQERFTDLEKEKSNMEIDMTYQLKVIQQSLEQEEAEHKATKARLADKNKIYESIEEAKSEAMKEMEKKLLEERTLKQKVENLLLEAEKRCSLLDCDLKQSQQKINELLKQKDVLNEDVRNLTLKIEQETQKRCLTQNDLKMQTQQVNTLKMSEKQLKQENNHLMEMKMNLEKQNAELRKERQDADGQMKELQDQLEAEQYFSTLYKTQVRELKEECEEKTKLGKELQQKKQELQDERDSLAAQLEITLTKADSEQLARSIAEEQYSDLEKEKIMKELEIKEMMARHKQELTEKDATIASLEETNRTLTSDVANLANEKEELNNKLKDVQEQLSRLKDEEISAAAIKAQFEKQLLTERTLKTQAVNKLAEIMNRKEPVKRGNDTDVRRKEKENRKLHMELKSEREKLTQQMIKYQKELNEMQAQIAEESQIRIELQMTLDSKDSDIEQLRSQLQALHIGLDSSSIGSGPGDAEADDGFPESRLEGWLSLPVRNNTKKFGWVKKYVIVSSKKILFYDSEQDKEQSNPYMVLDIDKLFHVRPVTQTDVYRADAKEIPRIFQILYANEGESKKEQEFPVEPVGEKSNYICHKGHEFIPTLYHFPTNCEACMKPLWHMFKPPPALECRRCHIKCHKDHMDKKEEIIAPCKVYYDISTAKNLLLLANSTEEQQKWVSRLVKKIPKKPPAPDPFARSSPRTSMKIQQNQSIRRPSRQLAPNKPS

[4] = Kinetic solubility of the compound in pH 7.4 PBS buffer incubated for 2 hrs using orbital shaker by LC-UV mass spectrometry; assay type: physicochemical; conditions: read-out: Kinetic_solubility
[5] = Lipophilicity, logP of compound; assay type: physicochemical; conditions: octanol/water
[6] = Distribution coefficient, logD of compound by chromatographic method; assay type: physicochemical; conditions: octanol/water
[7] = Apparent permeability in MDCK-MDR1 cells at 10 uM after 1 hr by LC-MS/MS analysis; assay type: ADME, cell-based, Canis lupus familiaris; conditions: dog
[8] = Metabolic stability in mouse liver microsomes assessed as intrinsic clearance at 1 uM measured upto 40 mins in presence of NADPH by LC-MS/MS analysis; assay type: ADME, Microsome; conditions: read-out: CLH
[9] = test system: MDR1; assay: in vitro; conditions: dog, MDCK-MDR1
Description: Efflux ratio of apparent permeability across basolateral to apical side to apical to basolateral side in MDCK-MDR1 cells at 10 uM measured after 1 hr by LC-MS/MS analysis

| IC50 [1] | IC50 [2] | IC50 [3] | solubility kinetic at 2 h [4] | logP [5] | chromatographic logD [6] | Papp at 1 h, 10 µM [7] | CLint scaled at 1 µM [8] | efflux ratio at 1 h, 10 µM [9] | Structure (SMILES) |
| --- | --- | --- | --- | --- | --- | --- | --- | --- | --- |
| 974 nM | 5030 nM | 98 nM | – | – | – | – | – | – | COc1cccc([C@@H](C)NC(=O)[C@H]2CC[C@H](c3ccncc3)CC2)c1 |
| 71 nM | 23000 nM | 9 nM | – | – | – | – | – | – | COc1cccc([C@@H](C)NC(=O)N2CC[C@H](c3ccncc3)C[C@H]2C)c1 |
| > 5000 nM | 24300 nM | 4330 nM | – | – | – | – | – | – | COc1cccc([C@@H](C)NC(=O)[C@H]2CC[C@@H](c3ccncc3)CC2)c1 |
| 3310 nM | 48800 nM | 1640 nM | – | – | – | – | – | – | COc1cccc([C@@H](C)NC(=O)N2CC[C@H](c3ccncc3)C[C@@H]2C)c1 |
| 963 nM | 33800 nM | 45 nM | 130 µM (≈ 45.8 µg/mL) | – | – | 77.6 ×10⁻⁶ cm/s | 90 mL/min/kg | 1.1 | COc1cccc([C@@H](C)NC(=O)[C@H]2CC[C@H](c3ccncc3)C[C@H]2C)c1 |
| > 5000 nM | – | 851 nM | 11 µM (≈ 3.88 µg/mL) | – | – | – | – | – | COc1cccc([C@@H](C)NC(=O)[C@@H]2CC[C@@H](c3ccncc3)C[C@@H]2C)c1 |
| 673 nM | 52800 nM | 74 nM | – | – | – | – | – | – | COc1cccc([C@@H](C)NC(=O)N2CCC(c3ccncc3)CC2)c1 |
| 249 nM | 19400 nM | 35 nM | – | – | – | – | – | – | COc1cccc([C@@H](C)NC(=O)N2CC[C@@H](c3ccncc3)C[C@H]2C)c1 |
| 4930 nM | 53700 nM | 1300 nM | – | – | – | – | – | – | COc1cccc([C@@H](C)NC(=O)N2CC[C@@H](c3ccncc3)C[C@@H]2C)c1 |

Second part, the compound before the results:

| Structure (SMILES) | IC50 [1] | IC50 [2] | IC50 [3] | solubility kinetic at 2 h [4] | logP [5] | chromatographic logD [6] | Papp at 1 h, 10 µM [7] | CLint scaled at 1 µM [8] | efflux ratio at 1 h, 10 µM [9] |
| --- | --- | --- | --- | --- | --- | --- | --- | --- | --- |
| COc1cccc([C@@H](C)NC(=O)c2ccc(-c3ccncc3)nc2)c1 | 44 nM | 39 nM | 4 nM | – | – | – | – | – | – |
| COc1cccc([C@@H](C)NC(=O)c2ccc(-c3ccnc(F)c3)nn2)c1 | 4270 nM | 3600 nM | 280 nM | – | – | – | – | – | – |
| COc1cccc([C@@H](C)NC(=O)N2CCC(c3ccncc3F)CC2)c1 | 721 nM | 31800 nM | 45 nM | – | – | – | – | – | – |
| COc1cccc(CC(=O)Nc2cc(-c3ccnc(F)c3)cs2)c1 | 830 nM | – | 15 nM | 17 µM (≈ 5.82 µg/mL) | 4.53 | 2.83 | – | – | – |
| COc1cc([C@@H](C)NC(=O)N2CCN(c3ccncc3F)C[C@H]2C)ccc1F | 33 nM | 2340 nM | 3 nM | – | – | – | – | – | – |
| O=S(=O)(c1cccc2c(O)nccc12)N1CCCNCC1 [HYDROXYFASUDIL] | 3820 nM | – | – | > 200 µM | 1.43 | – | – | – | – |
| COc1cccc([C@@H](C)NC(=O)N2CCN(c3ccncc3F)CC2)c1 | 126 nM | 1830 nM | 7 nM | – | – | – | – | – | – |
| COc1ccc(Cl)c([C@@H](C)NC(=O)N2CCN(c3ccncc3F)C[C@H]2C)c1 | 164 nM | 11600 nM | – | 120 µM (≈ 48.8 µg/mL) | 3.3 | 2.7 | 122 ×10⁻⁶ cm/s | 199 mL/min/kg | – |
| COc1cccc([C@@H](C)NC(=O)N2CCN(c3ccncc3)CC2)c1 | 1460 nM | – | 4790 nM | – | – | – | – | – | – |
| C[C@@H](N)[C@H]1CC[C@H](C(=O)Nc2ccncc2)CC1 [Y-27632] | 3030 nM | – | – | – | 0.62 | 1.03 | – | – | – |
| COc1ccc(F)c([C@@H](C)NC(=O)N2CCN(c3ccncc3F)C[C@H]2C)c1 | 108 nM | 13100 nM | 7 nM | – | – | – | – | – | – |
| COc1cccc([C@@H](C)NC(=O)c2ccc(-c3ccnc(F)c3)cn2)c1 | 1030 nM | – | 50 nM | – | – | – | – | – | – |
| COc1cccc([C@@H](C)NC(=O)N2CCN(c3ccncc3)C(=O)C2)c1 | > 5000 nM | – | 534 nM | – | – | – | – | – | – |
| C[C@@H]1CN(c2ccncc2F)CCN1C(=O)N[C@H](C)c1cccc2nccn12 | 18 nM | 8140 nM | – | – | – | – | – | – | – |
| CS(=O)(=O)Nc1cccc(CC(=O)Nc2cc(-c3ccnc(F)c3)cs2)c1 | – | – | – | 77 µM (≈ 31.2 µg/mL) | 3.45 | – | – | – | – |
| COc1cccc([C@@H](C)NC(=O)N2CCN(c3ccncn3)C[C@H]2C)c1 | 264 nM | 36500 nM | 23 nM | – | – | – | – | – | – |
